Reference: patent publication US20250269018A1, “COMBINED CANCER THERAPY WITH AN EPITHELIAL CELL ADHESION MOLECULE (EPCAM) INHIBITOR AND A HEPATOCYTE GROWTH FACTOR RECEPTOR (HGFR) INHIBITOR” (ACADEMIA SINICA, priority 2021, published 2025)
Peptide text beside a SMILES is read from it. * marks the point of attachment. Cbz = O=C(OCc1ccccc1)*

How the values were obtained:
[1] = test system: GSK3β, active β-catenin and Snail; assay: Western blotting of GSK3β, active β-catenin, Snail and EMT proteins in HCT116 cells; assay type: cell-based, human
Description: FIGS. 4A to 4L. EpEX induces EMT and invasion by stabilizing β-catenin and Snail through decreasing GSK3β activity. (FIG. 4A) The protein expression of EMT markers and regulators was detected by Western blotting in Wild-type (WT) or EpCAM knockout (KO) HCT116 cells after EpEX treatment. (FIG. 4B) Cell invasion was examined by Transwell chamber assay with matrigel. (FIG. 4C) WT or KO HCT116 and HT29 cells were starved for 16 h, then treated with 0.5 nM of HGF with 2% FBS for 24 h. EMT-related protein expression (E-cadherin, vimentin, and Snail) was examined by Western blotting. (FIG. 4D) WT or KO HCT116 and HT29 cells were treated with HGF (0.5 nM) for 24 h. Invasion by HCT116 and HT29 cells was examined by Transwell chamber assay with matrigel. (FIG. 4E) HCT116 and HT29 cells were starved for 16 h, then treated with 0.5 nM of HGF with 2% FBS for 24 h. EMT-related protein expression (E-cadherin, Vimentin, and Snail) was examined by Western blotting. (FIG. 4F) HCT116 and HT29 cells were starved for 16 h, then treated with 0.5 nM of HGF with 2% FBS for 24 h. Cell invasion was assessed by a Transwell assay with matrigel. (FIG. 4G) HCT116 cells after shLuc and shHGFR treatment were treated with 50 nM of EpEX-His. HCT116 cells after shLuc and shHGFR treatment were treated with 50 nM of EpEX-His with 2% FBS for 24 h. EMT-related protein expression (E-cadherin, Vimentin, and Snail) was examined by Western blotting. (FIG. 4H) Cell invasion was examined by Transwell chamber assay with matrigel. (FIG. 4I) Starved HCT116 cells were treated SU (10 μM) for 1 h, followed by treatment with EpEX-His (50 nM) for 24 h. Phosphorylated GSK3β, active-β-catenin, and Snail were detected by Western blotting. (FIG. 4J) HCT116 cells were starved for 16 h, then treated with 50 nM EpEX-His for 24 min. AKT inhibitor LY294002 (25 μM), ERK inhibitor U0126 (20 μM), or PF-562271 (10 μM) were applied 1 h before EpEX treatment. Protein expression of phosphorylated GSK3β and Snail was examined by Western blotting. (FIG. 4K) HCT116 cells were starved for 16 h, then treated with 50 nM EpEX, and SU (10 μM), LY (25 μM), UO (20 μM) or PF (10 μM). Cell invasion was examined by Transwell chamber assay with matrigel. (FIG. 4L) Protein expression was analyzed by Western blotting in EpEX-His (50 nM) treated HCT116 cells after treatment with or without 2 μM GSK3β inhibitor (BIO) for 24 h. Quantification of the normalized protein expression in the right panel.
FIGS. 5A to 5I. EpEX promotes Snail protein stability through inhibition of ubiquitination-mediated proteasomal degradation. (FIG. 5A) The gene expression of EMT markers and regulators was detected by qRT-PCR in Wild-type (WT) or EpCAM knockout (KO) of HCT116 and HT29 cells. (FIG. 5B) Stability of Snail protein in WT or KO of HCT116 cells. Cells were treated with cyclohexamide (CHX) 100 μg/ml at the indicated intervals and subjected to Western blotting. (FIG. 5C) The protein expression of Snail was analyzed in WT or KO HCT116 cells by treating with or without […] MG132 (proteasome inhibitor) for 6 h, followed by Western blotting. (FIG. 5D) WT or KO HCT116 cells were treated with 10 μM MG132 for 6 h before cell collection. The lysates were subjected to immunoprecipitation using anti-Snail antibody and input. Western blotting was performed with the indicated antibodies to detect ubiquitinated Snail protein. (FIG. 5E) Stability of Snail protein in HCT116 cells after EpEX (50 nM) treatment for 24 h. Cells were treated with cyclohexamide (CHX; 100 μg/ml) for the indicated intervals and then subjected to Western blotting. (FIG. 5F) Expression of the gene encoding SNAIL was detected by qRT-PCR in HCT116 cells after EpEX (50 nM) treatment for 24 h. (FIG. 5G) The protein expression of Snail in HCT116 was analyzed cells by Western blotting after EpEX (50 nM) treatment for 24 h, and treatment with or without 10 μM MG132 (proteasome inhibitor) for 6 h. […]

[2] = test system: GSK3β, active β-catenin and Snail; assay: as above; assay type: cell-based, human; remark: listed apart in the source

Compound: O=C1Nc2cc(Br)ccc2/C1=C1/Nc2ccccc2/C1=N\O [BIO]
- active β-catenin and Snail protein expressions ([1]; HCT116, control and EpEX-His (50 nM) treated, 2 μM BIO 24 h, FIG. 4L): upregulated both in control and EpEX-treated cells
- active β-catenin and Snail proteins ([2]; EpAb2-6 and 2 μM BIO 24 h, FIG. 6H): increased

Compound: CC(C)C[C@@H](C=O)NC(=O)[C@H](CC(C)C)NC(=O)[C@H](CC(C)C)NC(=O)OCc1ccccc1 [MG132] (Cbz-Leu-Leu-Leu-aldehyde)
- Snail steady-state protein levels ([1]; HCT116 with or without EpEX (50 nM, 24 h), 10 μM MG132 6 h, FIG. 5G): increased Snail steady-state protein levels
- Snail steady-state protein levels ([1]; WT or EpCAM KO HCT116, for 6 h, FIG. 5C): increased Snail steady-state protein levels
- Active β-catenin and Snail steady-state protein levels ([2]; 10 μM MG132 and EpAb2-6 for 6 h, FIG. 6I): increased active β-catenin and Snail steady-state protein levels
